The experiment has as its system PBMC from HLA-A02 positive chronically infected and resolved HCV patients. Format: cell-based, human.
Turning to `CC[C@H](C)[C@H](NC(=O)[C@@H](NC(=O)[C@@H](N)CC(N)=O)[C@@H](C)CC)C(=O)N[C@@H](CCSC)C(=O)N[C@@H](Cc1ccc(O)cc1)C(=O)N[C@@H](C)C(=O)N1CCC[C@H]1C(=O)N[C@H](C(=O)N[C@@H](CC(C)C)C(=O)O)[C@@H](C)O`, the Immun recall is “+” and the Immune recall is reported as “+”.

Regarding `CC(C)C[C@H](NC(=O)[C@@H](N)CCCNC(=N)N)C(=O)NCC(=O)N[C@@H](C)C(=O)N[C@H](C(=O)N[C@@H](CCC(N)=O)C(=O)N[C@@H](CC(N)=O)C(=O)N[C@@H](CCC(=O)O)C(=O)N[C@H](C(=O)O)C(C)C)C(C)C`, the Immun recall is recorded as “+” and the Immune recall is given as “+”.

`CC(C)C[C@H](NC(=O)[C@H](C)NC(=O)[C@H](CC(C)C)NC(=O)[C@H](CC(C)C)NC(=O)[C@@H](N)Cc1ccccc1)C(=O)N[C@@H](CC(C)C)C(=O)N[C@@H](CO)C(=O)N[C@@H](CS)C(=O)N[C@@H](CC(C)C)C(=O)N[C@H](C(=O)O)[C@@H](C)O`: the Immun recall is “+” and the Immune recall was “+”.

Consider `CC[C@H](C)[C@H](NC(=O)[C@H](CS)NC(=O)CNC(=O)[C@H](CC(C)C)NC(=O)[C@H](CC(C)C)NC(=O)CN)C(=O)N[C@H](C(=O)N[C@H](C(=O)N[C@@H](CO)C(=O)N[C@@H](CC(C)C)C(=O)O)[C@@H](C)O)[C@@H](C)CC`, for which the Immun recall is reported as “+” and the Immune recall was “+”.

In the case of `CC[C@H](C)[C@H](NC(=O)[C@H](Cc1c[nH]cn1)NC(=O)[C@@H](NC(=O)[C@@H](N)CC(C)C)[C@@H](C)O)C(=O)N[C@@H](CC(=O)O)C(=O)N[C@@H](C)C(=O)N[C@@H](Cc1c[nH]cn1)C(=O)N[C@@H](Cc1ccccc1)C(=O)N[C@@H](CC(C)C)C(=O)O`, the Immun recall is on record as “+” and the Immune recall is recorded as “+”.

In the case of `CC(C)C[C@H](NC(=O)[C@H](C)NC(=O)[C@H](C)NC(=O)[C@H](CC(C)C)NC(=O)[C@@H](NC(=O)CNC(=O)CNC(=O)[C@@H](NC(=O)[C@H](CC(C)C)NC(=O)[C@@H](N)C(C)C)C(C)C)C(C)C)C(=O)O` [VLVGGVLAAL], the Immun recall is listed as “+” and the Immune recall is reported as “+”.

(Values after US20100099613A1, “PEPTIDES FOR INDUCING A CTL AND/OR HTL RESPONSE TO HEPATITIS C VIRUS” (GENIMMUNE, priority 2004, published 2010).)
